Measured values reported in US12281057B2 (VERTEX PHARMACEUTICALS INCORPORATED, priority 2017, dated 2025).

molecular target: truncated form of human NaV 1.8 with full channel activity (Homo sapiens, UniProt Q9Y5Y9); test: E-VIPR Assay Method B for detecting and measuring Nav inhibition (HEK cells, membrane potential FRET dyes, electrical stimulation); assay type: cell-based; settings: HEK cells expressing human NaV 1.8, Table 20B, read-out: Nav 1.8 MedChem Optical Assay EVIPR Assay Method B HS IC50
Description: [formula] where X is the ratio response of the test compound. […] E-VIPR Assay Method B for Detecting and Measuring Nav Inhibition Properties Sodium ion channels are voltage-dependent proteins that can be activated by inducing membrane voltage changes by applying electric fields. The electrical stimulation instrument and methods of use, referred to as E-VIPR, are described in International Publication No. WO 2002/008748 A3 and C.-J. Huang et al. Characterization of voltage-gated sodium channel blockers by electrical stimulation and fluorescence detection of membrane potential, 24 Nature Biotech. 439-46 (2006), both of which are incorporated by reference in their entirety. The instrument comprises a microtiter plate handler, an optical system for exciting the coumarin dye while simultaneously recording the coumarin and oxonol emissions, a waveform generator, a current- or voltage-controlled amplifier, and parallel electrode pairs that are inserted into assay plate wells. Under integrated computer control, this instrument passes user-programmed electrical stimulus protocols to cells within the wells of the microtiter plate. […] Sigma #F4135), 1% NEAA (Non-Essential Amino Acids, Life Tech #11140), 1% HEPES (Life Tech #15630), 1% Pen-Strep (Penicillin-Streptomycin; […] Cells were expanded in vented cap flasks, with 95% humidity and 5% CO2. Reagents and Stock Solutions: • 100 mg/mL Pluronic F-127 (Sigma #P2443), in dry DMSO • Compound Plates: […] 5% KIR 2.1 Bacmam virus (produced in-house), prepared as described in Section 3.3 of J. A. Fornwald et al., Gene Expression in Mammalian Cells Using BacMam, a Modified Baculovirus System, 1350 Methods in Molecular Biology 95-116 (2016), the entire contents of which are incorporated by reference. • 5 mM DiSBAC6(3) (a voltage sensitive oxonol acceptor) (Aurora #00-100-010) in dry DMSO • 5 mM CC2-DMPE (a membrane-bound coumarin phospholipid FRET donor) (Aurora #00-100-008) in dry DMSO • 89 mM VABSC-1 in H2O. […] The solution was made by adding 10% Pluronic F127 stock equal to combined volumes of CC2-DMPE and DiSBAC6(3). The order of preparation was first mix Pluronic and CC2-DMPE, then add DiSBAC6(3), then while vortexing add Bath1/β-Cyclodextrin. […] Assay Protocol: […] Final DMSO concentration for all wells in the assay was 0.625% (0.75% DMSO was supplemented to the Compound Loading Buffer for a final DMSO concentration of 0.625%). 2) Hexyl Dye Solution was prepared. 3) Cell plates were prepared. On the day of the assay, the media was aspirated, and the cells were washed three times with 80 μL of Bath-1 buffer, maintaining 25 μL residual volume in each well. 4) 25 μL per well of Hexyl Dye Solution was dispensed into the cell plates. The cells were incubated for 20 minutes at room temp or ambient conditions in darkness. 5) 80 μL per well of Compound Loading Buffer was dispensed into compound plates. […] The mixture was incubated for 30 minutes at room temp/ambient conditions. […] A pre-stimulus recording was performed for 0.5 seconds to obtain the un-stimulated intensities baseline. The stimulatory waveform was followed by 0.5 seconds of post-stimulation recording to examine the relaxation to the resting state. Data Analysis: Data were analyzed and reported as normalized ratios of emission intensities measured in the 460 nm and 580 nm channels. The response as a function of time was reported as the ratios obtained using the following formula: [formula] The data were further reduced by calculating the initial (Ri) and final (Rf) ratios. These were the average ratio values during part or all of the pre-stimulation period and during sample points during the stimulation period. The fluorescence ratio (Rf/Ri) was then calculated and reported as a function of time. Control responses were obtained by performing assays in the presence of the positive control, and in the absence of pharmacological agents (DMSO vehicle negative control). Responses to the negative (N) and positive (P) controls were calculated as above. […]

truncated form of human NaV 1.8 with full channel activity, sequence (Q9Y5Y9 126-1722 limits assumed): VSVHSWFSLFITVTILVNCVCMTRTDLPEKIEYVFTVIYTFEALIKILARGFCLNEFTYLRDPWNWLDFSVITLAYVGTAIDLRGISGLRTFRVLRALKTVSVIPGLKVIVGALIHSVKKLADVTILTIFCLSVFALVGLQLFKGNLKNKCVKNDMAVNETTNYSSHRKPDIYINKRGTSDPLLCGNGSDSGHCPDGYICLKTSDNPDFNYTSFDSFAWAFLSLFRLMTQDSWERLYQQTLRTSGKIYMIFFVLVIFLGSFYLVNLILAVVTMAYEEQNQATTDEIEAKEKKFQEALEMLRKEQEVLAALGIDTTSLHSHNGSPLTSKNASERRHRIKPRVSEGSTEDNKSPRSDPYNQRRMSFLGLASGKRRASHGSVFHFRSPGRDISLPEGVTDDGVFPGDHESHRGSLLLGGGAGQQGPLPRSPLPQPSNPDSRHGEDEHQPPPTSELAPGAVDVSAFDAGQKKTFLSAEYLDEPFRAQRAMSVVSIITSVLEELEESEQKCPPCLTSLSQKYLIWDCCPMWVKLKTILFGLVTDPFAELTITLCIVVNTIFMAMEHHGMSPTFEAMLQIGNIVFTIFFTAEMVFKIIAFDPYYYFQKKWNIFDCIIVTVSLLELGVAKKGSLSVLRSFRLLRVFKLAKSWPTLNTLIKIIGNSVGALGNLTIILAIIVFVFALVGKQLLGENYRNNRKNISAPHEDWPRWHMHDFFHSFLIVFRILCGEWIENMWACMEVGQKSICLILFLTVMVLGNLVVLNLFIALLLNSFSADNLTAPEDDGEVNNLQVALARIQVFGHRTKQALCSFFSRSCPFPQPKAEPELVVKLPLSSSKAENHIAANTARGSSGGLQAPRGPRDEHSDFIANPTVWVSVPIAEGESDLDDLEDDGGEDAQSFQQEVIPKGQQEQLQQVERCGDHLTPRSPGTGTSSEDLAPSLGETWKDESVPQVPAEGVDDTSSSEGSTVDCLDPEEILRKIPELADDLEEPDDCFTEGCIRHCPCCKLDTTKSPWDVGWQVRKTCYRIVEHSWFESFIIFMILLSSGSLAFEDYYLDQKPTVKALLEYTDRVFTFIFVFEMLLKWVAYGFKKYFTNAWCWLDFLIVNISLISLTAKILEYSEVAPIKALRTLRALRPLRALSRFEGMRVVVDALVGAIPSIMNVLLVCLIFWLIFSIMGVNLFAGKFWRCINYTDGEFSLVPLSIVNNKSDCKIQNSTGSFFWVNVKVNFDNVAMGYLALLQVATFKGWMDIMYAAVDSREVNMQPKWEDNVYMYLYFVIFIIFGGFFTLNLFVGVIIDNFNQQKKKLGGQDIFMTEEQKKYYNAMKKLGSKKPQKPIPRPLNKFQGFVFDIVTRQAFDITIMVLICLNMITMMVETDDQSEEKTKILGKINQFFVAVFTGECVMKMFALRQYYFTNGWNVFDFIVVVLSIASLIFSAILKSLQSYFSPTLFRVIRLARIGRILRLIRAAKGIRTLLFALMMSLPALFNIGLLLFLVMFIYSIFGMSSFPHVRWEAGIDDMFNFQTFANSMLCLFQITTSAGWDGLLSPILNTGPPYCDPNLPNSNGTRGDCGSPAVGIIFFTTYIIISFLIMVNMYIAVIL

IC50 [nM]	Structure (SMILES)
57	COc1ccc(Oc2cc(C(F)(F)F)ccc2C(=O)Nc2cccc(C(N)=O)c2)c(OC)c1 [Compound 301, N-(3-carbamoylphenyl)-2-[2,4-(dimethoxy)phenoxy]-4-(trifluoromethyl)benzamide]
30	COc1ccc(Oc2cc(Cl)c(Cl)cc2C(=O)Nc2cccc(C(N)=O)c2)c(F)c1 [Compound 273, N-(3-carbamoylphenyl)-4,5-dichloro-2-(2-fluoro-4-methoxy-phenoxy)benzamide]
415	NC(=O)c1cccc(NC(=O)c2c(Oc3ccc(F)cc3)cccc2C(F)(F)F)c1 [Compound 257, N-(3-carbamoylphenyl)-2-(4-fluorophenoxy)-6-(trifluoromethyl)benzamide]
42	COc1ccc(Oc2ccc(C(F)(F)F)cc2C(=O)Nc2cccc(C(N)=O)c2)c(C)c1 [Compound 280, N-(3-carbamoylphenyl)-2-(4-methoxy-2-methylphenoxy)-5-(trifluoromethyl)benzamide]
14	COc1cc(F)ccc1Oc1cc(C(F)(F)F)ccc1C(=O)Nc1cccc(C(N)=O)c1 [Compound 298, N-(3-Carbamoylphenyl)-2-[4-fluoro-2-(methoxy)phenoxy]-4-(trifluoromethyl)benzamide]
40	Cc1cc(F)ccc1Oc1ccc(C(F)(F)F)cc1C(=O)Nc1ccc(C(N)=O)cc1 [Compound 297]
130	CC(C)Oc1ccccc1Oc1ccc(C(F)(F)F)cc1C(=O)Nc1cccc(C(N)=O)c1 [Compound 282, N-(3-carbamoylphenyl)-2-(2-isopropoxyphenoxy)-5-(trifluoromethyl)benzamide]
8	NC(=O)c1cccc(NC(=O)c2cc(Cl)c(Cl)cc2Oc2ccc(OC(F)(F)F)cc2)c1 [Compound 272, N-(3-carbamoylphenyl)-4,5-dichloro-2-[4-(trifluoromethoxy)phenoxy]benzamide]
26	COc1cc(Cl)ccc1Oc1cc(C(F)(F)F)ccc1C(=O)Nc1cccc(C(N)=O)c1 [Compound 302, N-(3-carbamoylphenyl)-2-[4-chloro-2-(methoxy)phenoxy]-4-(trifluoromethyl)benzamide]
82	NC(=O)c1cccc(NC(=O)c2cc(C(F)(F)F)ccc2Oc2ccccc2Cl)c1 [Compound 283, N-(3-carbamoylphenyl)-2-(2-chlorophenoxy)-5-(trifluoromethyl)benzamide]
2	COc1cc(F)ccc1Oc1cc(Cl)c(Cl)cc1C(=O)Nc1ccc(C(N)=O)cc1 [Compound 274, N-(4-carbamoylphenyl)-4,5-dichloro-2-(4-fluoro-2-methoxy-phenoxy)benzamide]

Second part, the molecule before the results:

Structure (SMILES)	IC50 [nM]
NC(=O)c1cccc(NC(=O)c2cc(Cl)c(Cl)cc2Oc2ccc(F)cc2)c1 [Compound 268, N-(3-carbamoylphenyl)-4,5-dichloro-2-(4-fluorophenoxy)benzamide]	14
NC(=O)c1cccc(NC(=O)c2ccc(C(F)(F)C(F)(F)F)cc2Oc2ccc(F)cc2)c1 [Compound 249, N-(3-carbamoylphenyl)-2-(4-fluorophenoxy)-4-(1,1,2,2,2-pentafluoroethyl)benzamide]	60
COc1ccc(Oc2cc(C(F)(F)F)ccc2C(=O)Nc2cccc(C(N)=O)c2)c(Cl)c1 [Compound 299, N-(3-carbamoylphenyl)-2-[2-chloro-4-(methoxy)phenoxy]-4-(trifluoromethyl)benzamide]	130
Cc1ccc(C(N)=O)cc1NC(=O)c1c(Oc2ccc(F)cc2Cl)cccc1C(F)(F)F [Compound 255, N-(5-carbamoyl-2-methylphenyl)-2-(2-chloro-4-fluorophenoxy)-6-(trifluoromethyl)benzamide]	7200
COc1cc(Cl)ccc1Oc1ccc(C(F)(F)F)cc1C(=O)Nc1cccc(C(N)=O)c1 [Compound 286, N-(3-carbamoylphenyl)-2-(4-chloro-2-methoxyphenoxy)-5-(trifluoromethyl)benzamide]	20
COc1cc(F)ccc1Oc1cccc(C(F)(F)F)c1C(=O)Nc1cccc(C(N)=O)c1 [Compound 259, N-(3-carbamoylphenyl)-2-(4-fluoro-2-methoxyphenoxy)-6-(trifluoromethyl)benzamide]	65
CC(C)(C)c1ccc(C(=O)Nc2cncc(C(N)=O)c2)c(Oc2ccc(C(F)(F)F)nc2)c1 [Compound 261, 5-(4-(tert-butyl)-2-((6-(trifluoromethyl)pyridin-3-yl)oxy)benzamido)nicotinamide]	1200
COc1cc(F)ccc1Oc1ccc(C(F)(F)F)cc1C(=O)Nc1cccc(C(N)=O)c1 [Compound 288, N-(3-carbamoylphenyl)-2-(4-fluoro-2-methoxyphenoxy)-5-(trifluoromethyl)benzamide]	34
Cc1cc(F)ccc1Oc1ccc(C(F)(F)F)cc1C(=O)Nc1cccc(C(N)=O)c1 [Compound 296, N-(3-carbamoylphenyl)-2-(4-fluoro-2-methylphenoxy)-5-(trifluoromethyl)benzamide]	18
Cc1cc(F)ccc1Oc1ccc(C(F)(F)F)cc1C(=O)Nc1cccc(C(N)=O)c1C [Compound 291, N-(3-carbamoyl-2-methylphenyl)-2-(4-fluoro-2-methylphenoxy)-5-(trifluoromethyl)benzamide]	1400
COc1cc(F)ccc1Oc1cc(C(F)(F)C(F)(F)F)ccc1C(=O)Nc1cccc(C(N)=O)c1 [Compound 248, N-(3-carbamoylphenyl)-2-(4-fluoro-2-methoxyphenoxy)-4-(1,1,2,2,2-pentafluoroethyl)benzamide]	11
COc1ccc(Oc2cc(C(F)(F)C(F)(F)F)ccc2C(=O)Nc2cccc(C(N)=O)c2)c(Cl)c1 [Compound 251, N-(3-carbamoylphenyl)-2-(2-chloro-4-methoxyphenoxy)-4-(1,1,2,2,2-pentafluoroethyl)benzamide]	91
Cc1cc(F)ccc1Oc1cccc(C(F)(F)F)c1C(=O)Nc1cccc(C(N)=O)c1 [Compound 258, N-(3-carbamoylphenyl)-2-(4-fluoro-2-methylphenoxy)-6-(trifluoromethyl)benzamide]	85
NC(=O)c1cc(NC(=O)c2c(Oc3ccc(F)cc3Cl)cccc2C(F)(F)F)ccc1Cl [Compound 254, N-(3-carbamoyl-4-chlorophenyl)-2-(2-chloro-4-fluorophenoxy)-6-(trifluoromethyl)benzamide]	260
Cc1cc(F)ccc1Oc1ccc(C(F)(F)F)cc1C(=O)Nc1ccc(Cl)c(C(N)=O)c1 [Compound 293, N-(3-carbamoyl-4-chlorophenyl)-2-(4-fluoro-2-methylphenoxy)-5-(trifluoromethyl)benzamide]	33
NC(=O)c1cccc(NC(=O)c2ccc(C(F)(F)F)cc2Oc2ccc(F)cc2)c1 [Compound 300, N-(3-carbamoylphenyl)-2-[4-fluorophenoxy]-4-(trifluoromethyl)benzamide]	61
COc1cc(Cl)ccc1Oc1cc(C(F)(F)C(F)(F)F)ccc1C(=O)Nc1cccc(C(N)=O)c1 [Compound 247, N-(3-carbamoylphenyl)-2-(4-chloro-2-methoxyphenoxy)-4-(1,1,2,2,2-pentafluoroethyl)benzamide]	33
COc1ccc(Oc2ccc(C(F)(F)F)cc2C(=O)Nc2cccc(C(N)=O)c2)c(OC)c1 [Compound 281, N-(3-carbamoylphenyl)-2-(2,4-dimethoxyphenoxy)-5-(trifluoromethyl)benzamide]	39
Cc1cc(F)ccc1Oc1cc(Cl)c(Cl)cc1C(=O)Nc1cccc(C(N)=O)c1 [Compound 267, N-(3-carbamoylphenyl)-4,5-dichloro-2-(4-fluoro-2-methyl-phenoxy)benzamide]	7
